Test results: patent US20210038626A1, “COMPOSITIONS COMPRISING AND METHODS OF USING INHIBITORS OF SODIUM-GLUCOSE COTRANSPORTERS 1 AND 2” (Lexicon Pharmaceuticals, Inc., priority 2011, published 2021)

How the values were obtained:
[1] = tested on: patients with type 2 diabetes mellitus; assay: Phase 2a clinical trial, liquid oral dosage form once daily for 28 days; type: in vivo, human
Method: Certain aspects of this invention may be understood with reference to the figures. FIGS. 1-10 show results obtained from a randomized, double-blind, placebo controlled Phase 2a clinical trial, wherein 150 mg and 300 mg doses of (2S,3R,4R,5S,6R)-2-(4-chloro-3-(4-ethoxybenzyl)phenyl)-6-(methylthio)tetrahydro-2H-pyran-3,4,5-triol were orally administered in solution once daily to patients with type 2 diabetes mellitus. FIG. 11 provides results obtained from a Phase 1 clinical trial, wherein both solid and liquid oral dosage forms of the compound were administered to patients with type 2 diabetes mellitus.
This invention is based, in part, on findings obtained from a randomized, double-blind, placebo controlled Phase 2a clinical trial, wherein 150 mg/day and 300 mg/day doses of a compound of the invention were orally administered in a liquid to patients with type 2 diabetes mellitus. The compound was (2S,3R,4R,5S,6R)-2-(4-chloro-3-(4-ethoxybenzyl)phenyl)-6-(methylthio)tetrahydro-2H-pyran-3,4,5-triol, which has the structure:
Patients (n=36) with type 2 diabetes mellitus received one of two oral doses of (2S,3R,4R,5S,6R)-2-(4-chloro-3-(4-ethoxybenzyl)phenyl)-6-(methylthio)tetrahydro-2H-pyran-3,4,5-triol, given as 150 mg or 300 mg once daily, or matching placebo, for 28 days in solution.
In this study, patients on metformin were taken off of the drug 16 days prior to day 0, the day dosing first began.

[2] = tested on: human SGLT1 / human SGLT2; details: ratio of human SGLT1 IC50 to human SGLT2 IC50
Method: HEK293 cells were transfected with the human HA-SGLT2-pIRESpuro2 vector and the bulk stable cell line was selected in presence of 0.5 μg/ml of puromycin. Human HA-SGLT2 cells were maintained in DMEM media containing 10% FBS, 1% GPS and 0.5 μg/ml of puromycin.
The HEK293 cells expressing the human HA-SGLT2 were seeded in 384 well plates (30,000 cells/well) in DMEM media containing 10% FBS, 1% GPS and 0.5 μg/ml of puromycin, then incubated overnight at 37 C, 5% CO2. Cells were then washed with uptake buffer (140 mM NaCl, 2 mM KCl, 1 mM CaCl2, 1 mM MgCl2, 10 mM HEPES, 5 mM Tris, 1 mg/ml bovine serum albumin (BSA), pH 7.3). Twenty microliters of uptake buffer with or without testing compounds were added to the cells. […] After washing the cells with uptake buffer, scintillation fluid was added (40 microliters/well) and ^14C-AMG uptake was measured by counting radioactivity using a scintillation coulter (TopCoulter NXT; Packard Instruments).
Cells were then washed with uptake buffer (140 mM NaCl, 2 mM KCl, 1 mM CaCl2, 1 mM MgCl2, 10 mM HEPES, 5 mM Tris, 1 mg/ml bovine serum albumin (BSA), pH 7.3). […] After washing the cells with uptake buffer, scintillation fluid was added (40 microliters/well) and ^14C-AMG uptake was measured by counting radioactivity using a scintillation coulter (TopCoulter NXT; Packard Instruments).

[3] = tested on: patients with type 2 diabetes mellitus; assay: Phase 1 clinical trial comparing solid and liquid oral dosage forms, single 300 mg dose, crossover; type: in vivo, human; details: single doses
Method: This invention is further based on findings obtained from a randomized, double-blind, placebo controlled Phase 1 clinical trial that compared liquid and solid dosage forms of the compound.
Patients (n=12) with type 2 diabetes mellitus received one of three oral formulations of 300 mg of (2S,3R,4R,5S,6R)-2-(4-chloro-3-(4-ethoxybenzyl)phenyl)-6-(methylthio)tetrahydro-2H-pyran-3,4,5-triol before breakfast: as two 150 mg tablets, six 50 mg tablets, or 30 mL of 10 mg/mL solution in a randomized sequence implementing a Latin Square crossover design, with a 5-day washout between doses.
Changes in urinary glucose excretion, fasting plasma glucose (FPG), insulin, postprandial glucose (PPG), peptide YY (PYY), and glucagon-like peptide-1(GLP-1) were measured at days −1, 1, 6, and 11.

[4] = 150 mg and 300 mg once daily, 28 days

CCOc1ccc(Cc2cc([C@@H]3O[C@H](SC)[C@@H](O)[C@H](O)[C@H]3O)ccc2Cl)cc1 [(2S,3R,4R,5S,6R)-2-(4-chloro-3-(4-ethoxybenzyl)phenyl)-6-(methylthio)tetrahydro-2H-pyran-3,4,5-triol]
glucosuria compared to placebo ([1]; 150 mg and 300 mg once daily, 28-day dosing period, preliminary data): significant and sustained glucosuria | adverse events [1, 4]: generally mild and evenly distributed across all dose groups, including placebo | dose-limiting toxicities [1, 4]: no evidence of dose-limiting toxicities | glucose tolerance (FIG. 2) ([1]; 150 mg/day and 300 mg/day treatment groups vs placebo): greater glucose tolerance than those in the placebo group | plasma glucose levels (FIG. 1) ([1]; 150 mg/day and 300 mg/day treatment groups, upon treatment): rapid, statistically significant decrease | post-prandial glucose levels (FIG. 5) ([1]; 150 mg/day and 300 mg/day vs placebo): rapid, statistically significant decrease | insulin sensitivity, homeostatic model assessment (HOMA) (FIG. 4) ([1]; 150 mg/day and 300 mg/day vs placebo, day 27): improved insulin sensitivity compared to placebo | mean diastolic and systolic blood pressures (FIGS. 8 and 9) ([1]; 150 mg/day and 300 mg/day, after 28 days of dosing, vs placebo): decreased mean diastolic and systolic blood pressures | mean arterial pressures (FIG. 10) ([1]; 150 mg/day and 300 mg/day, day 28 vs baseline): also decreased | mean HbA1c levels (FIG. 7) ([1]; 150 mg/day and 300 mg/day, four weeks): marked decrease | SGLT1 IC50: SGLT2 IC50 ratio [2]: about 20 | FPG and PPG levels [3]: markedly improved | GLP-1 and PYY levels [3]: increased
